Values after ≈ are worked out from the molar mass of the structure shown. Values joined by “and” are separate entries in the source; they are usually repeats but may differ in a detail not shown here. Identical values can stand only once. Like-named read-outs stand apart in the source and are kept apart here.
How the values were obtained:
[1] = Cosolvent formulation: solubility, saline dilution and storage stability; type: physicochemical; details: for solubility: organic solvent or mixture
Description: Co-solvent systems with various compositions and ratios of PEG 400, PEG 300, and propylene glycol were prepared to solubilize 5–10 mg/mL of GT-14. Each system was diluted with normal saline at different ratios of 1:1, 1:3, 1:7, and 1:15 (v/v) and observed for signs of precipitation for 4 h. The cosolvent system with maximum solubility and aqueous tolerance was tested for stability at different temperatures (−20°C, 4°C, and room temperature) in amber glass vials for up to a month. Samples were aliquoted at different time points and analyzed with UPLC.

[2] = Bi-directional transport study in Caco-2 cell culture model; type: in vitro ADME, human; details: human, donor 10 μM
Description: (§1) Caco-2 cells were cultivated as described previously with slight modification ([12]). Briefly, a cell monolayer was prepared by seeding 400,000 cells per insert (Nunc, surface area 4.2 cm^2, 3 μm pore size). Cells were maintained at 37°C under 90% humidity and 5% CO2. Monolayers were used between 19 and 22 days after seeding. The integrity of each monolayer was checked by measuring the transepithelial electrical resistance (Millicell ERS®) before the experiment. The normal TEER values obtained were above 400 Ω·cm^2. Cell monolayers with TEER values less than 400 Ω·cm^2 were not used. Hank’s balanced salt solution (HBSS) (9.8 g/L) was supplemented with NaHCO3 (0.37 g/L), HEPES (5.96 g/L), and glucose (3.5 g/L) for all experiments, after adjusting the pH to the desired value.
(§2) For transport studies, 2.5 mL of GT-14 testing solution (10 μM) in HBSS (pH 7.4) was added to the apical side (A to B transport) or the basolateral side (B to A transport). Five donor samples (200 μL) and five receiver samples (200 μL) were taken at 0, 1, 2, 3, and 4 h followed by the addition of 200 μL of GT-14 test solution to the donor or 200 μL of blank HBSS buffer to the receiver side. Then, 100 μl of an ACN containing internal standard was added to the samples right after sampling. The TEER was measured at the end of the study, and the cell layer was washed carefully using cold blank HBSS 3 times, then cut and sonicated for 30 min in 1.0 mL of blank HBSS for intracellular GT-14 concentration measurement. All samples were centrifuged at 15,000 rpm for 15 min at 4°C for UPLC analysis.
(§3) The apparent permeability coefficient and efflux ratio were obtained according to the following equations: […]

Caco-2 cell monolayers = assay: as above; type: in vitro ADME, human
Description: as §1, §2, §3

DU145 = tested on: DU145; parameters: method as in PMID 32575572; details: cited from earlier work
[3] = Ionization constant (pKa) determination, Pion Sirius T3, UV-metric and Fast UV titration; type: physicochemical; details: for pKa: 0.15 M KCl solution, 0.15 M KCl, 25 ± 1°C
Description: The Ionization constant of GT-14 was determined using the Pion Sirius T3 apparatus (Sirius Analytical Instruments Ltd., East Sussex, UK). It has an Ag/AgCl double junction reference pH electrode, a Sirius ±D-PAS spectrometer and a turbidity sensing device. The titration experiments were conducted in 0.15 M KCl solution under an argon atmosphere at a temperature of 25 ± 1°C. All tests were performed using standardized 0.5 M KOH and 0.5 M HCl as titration reagents. pKa value was measured using UV-metric and Fast UV titration methods.

[4] = pH-dependent solubility in USP buffers; type: physicochemical; details: standard USP buffer, aqueous buffer
Description: The pH-dependent stability of GT-14 was assessed in aqueous media of pH ranging from 1 to 10 at room temperature. Standard USP buffers ([11]) were prepared and used for this experiment. Details of buffer solutions are provided in Table I. For the pH solubility profile, GT-14 solid was added in excess amounts in various buffer solutions.

[5] = Stability of GT-14 in rat urine; type: in vitro ADME; details: for Stability at -20 °C (48 hrs) in rat urine: n=5, in %
Description: Blank rat urine was spiked with GT-14 at conc. of 25, 50, 500 and 1000 ng/mL. The samples were kept at -20°C for 48 hours (n=5, Mean ± SD)

liver microsomes = assay: Phase II glucuronidation reaction with liver microsomes; type: in vitro ADME; details: UDPGA, 2 h
Description: The in vitro phase II glucuronidation reaction was carried out using a published protocol that involves the use of uridine diphosphate glucuronic acid (UDPGA) as cofactor, saccharolactone as beta-glucuronidase inhibitor to drive the forward reaction to release the metabolite, potassium phosphate buffer (KPI) to mimic physiological conditions, and alamethicin as a surfactant for the response. The components were pipetted into microcentrifuge tubes in the following order: GT-14 testing solution in KPI (pH 7.4), solution B (25 mM saccharolactone and 5 mM magnesium chloride), solution A (25 mM uridine diphosphate glucuronic acid and potassium chloride), microsome. Samples (100 μL) were taken at 2 h. The reaction was terminated with 50 μL of solution containing 0.6% formic acid in acetonitrile + internal standard (rutin) at each time point and vortexed for 1 min. The samples were then centrifuged at 14,000 rpm for 15 min. The supernatant (100 μL) was then collected and loaded into the UPLC for analysis.

Percentage Recovery, cosolvent formulation ([1]; 4°C, Day 7): 101.09 ± 2.19%
Percentage Recovery, cosolvent formulation ([1]; 4°C, Day 15): 99.14 ± 0.32%
Percentage Recovery, cosolvent formulation ([1]; 4°C, Day 30): 98.83 ± 0.15%
solubility ([1]; PEG300: PEG400: Propylene glycol (1:1:1), PEG300: PEG400: Propylene glycol, ratio 1:1:1, read-out: Solubility in cosolvent formulation): 6000 µg/mL
solubility ([1]; PEG300: PEG400: Propylene glycol (3:2:2 v/v), optimum, PEG300: PEG400: Propylene glycol, ratio 3:2:2 v/v, read-out: Solubility in cosolvent formulation (optimum)): 8000 µg/mL
increase of solubility in optimum cosolvent formulation over water solubility ([1]; PEG 300:PEG 400:propylene glycol 3:2:2): over 70 times
solubility ([1]; PEG 400: Propylene glycol: Tween 80 (2:1:0.25), PEG 400: Propylene glycol: Tween 80, ratio 2:1:0.25, read-out: Solubility in cosolvent formulation): 5000 µg/mL
Percentage Recovery, cosolvent formulation ([1]; Room Temperature, Day 7): 93.4% and 93.37± 0.76%
Percentage Recovery, cosolvent formulation ([1]; Room Temperature, Day 15): 91.18 ± 0.38%
Percentage Recovery, cosolvent formulation ([1]; Room Temperature, Day 30): 90.88 ± 0.07%
appearance of cosolvent formulation after one month ([1]; room temperature): grew a darker color
Percentage Recovery, cosolvent formulation ([1]; −20°C, Day 7): 100.32 ± 0.08%
Percentage Recovery, cosolvent formulation ([1]; −20°C, Day 15): 101.22 ± 0.27%
Percentage Recovery, cosolvent formulation ([1]; −20°C, Day 30): 101.26 ± 0.39%
efflux ratio at 4 h, 10 μM ([2]; Caco-2, pH 7.4): 1.8
Papp A→B at 4 h, 10 μM ([2]; Caco-2, HBSS pH 7.4, n=3, read-out: apical to basolateral permeability (Pa-b)): 13 ×10⁻⁶ cm/s
Papp B→A at 4 h, 10 μM ([2]; Caco-2, HBSS pH 7.4, n=3, read-out: basolateral to apical permeability (Pb-a)): 24.2 ×10⁻⁶ cm/s
BCS class (Caco-2 cell monolayers; based on low aqueous solubility and high permeability): BCS class II
predicted absorption in the GI tract in humans (Caco-2 cell monolayers; predicted from Caco-2 permeability): > 75%
pKa ([3]; read-out: pKa (printed as acidic pKa, nitrogen of the imine group)): 3.46 ± 0.014
pKa ([3]; read-out: pKa (printed as basic pKa, phenolic group)): 10.5 ± 0.4
isoelectric point (pI) ([3]; pI=(pKa acid+pKa base)/2): approximately 7.0
solubility thermodynamic at 24 h ([4]; between pH 5 and 7, 24 h): < 10 µg/mL
solubility thermodynamic at 24 h ([4]; pH 1.2, 24 h): ~80 µg/mL (≈ 303 µM)
solubility thermodynamic at 24 h ([4]; pH 4.6, 24 h): ~140 µg/mL (≈ 530 µM)
stability in rat urine (in words) [5]: stable
Stability at -20 °C (48 hrs) in rat urine ([5]; 25 ng/ml): 109.28 ± 2.57
Stability at -20 °C (48 hrs) in rat urine ([5]; 50 ng/ml): 110.25 ± 2.36
Stability at -20 °C (48 hrs) in rat urine ([5]; 500 ng/ml): 105.71 ± 3.76
Stability at -20 °C (48 hrs) in rat urine ([5]; 1000 ng/ml): 101.43 ± 2.58
Phase II glucuronidation (UPLC peaks) (liver microsomes): no additional peaks were observed
SMILES: C/C(=N\c1ccc(O)cc1)c1cc2ccccc2n1C [GT-14, (E)-4-((1-(1-methyl-1H-indol-2-yl)ethylidene)amino)phenol]
precipitation on dilution of cosolvent formulation with saline ([1]; optimum cosolvent formulation, several ratios of saline): No precipitation was observed till a 10X dilution with saline
appearance of cosolvent formulation after one month ([1]; −20°C and 4°C): remained light yellow, without any visible particles
migratory capability of DU145 cells (DU145): significant reduction
